Measurements published in article PMC6028423, “Synthetic molecular evolution of hybrid cell penetrating peptides” (Nature Communications, 2018).

Tests used:
[1] = system: HeLa, RAW264.7, HepG2, and MCF-7 cells; assay: TAMRA delivery, flow cytometry and confocal microscopy, statements over several cell types or cell type not stated; type: cell-based; settings: cell type and temperature not stated; threshold just above cells treated with free TAMRA; single example
Description: Parent and daughter sequences lacking the PNA cargo were characterized to determine the effect of the cargo on delivery. Sequences were labeled with the fluorophore tetramethylrhodamine (TAMRA) on a C-terminal cysteine residue (PDEP-TA) and their delivery to multiple human cell types was measured by flow cytometry. To test the efficiency under stringent conditions, we used peptide concentrations of only 5 μM total containing 0.5 μM dye-labeled peptide. Peptides were incubated with HeLa, RAW264.7, HepG2, and MCF-7 cells for 30 min at 4 °C, 21 °C, or 37 °C, followed by trypsinization to detach cells for counting and to digest any externally bound peptide. […]. […]
HeLa, RAW264.7, HCT116, HepG2, and MCF-7 cells were plated in 12-well plates at 100,000 cells/well. […] Cells were transferred to a filter-topped flow cytometry tube and analyzed on a BD LSR II flow cytometer. Cells displaying a normal morphology were gated and first analyzed for GFP fluorescence using the […] laser. GFP-negative cells were used to generate a histogram of TAMRA fluorescence, measured with the […] laser. […]
Cells were treated as described above for the TAMRA delivery assay and immediately imaged to avoid artifacts resulting from fixation. The distribution of TAMRA and Sytox Green was analyzed using a confocal scanning Nikon Eclipse Ti2 inverted microscope using a 40× oil-immersion objective. […]

[2] = system: HeLa cells; assay: TAMRA delivery assay, flow cytometry; type: cell-based, human; settings: tested as peptide-TA; 0.5 µM peptide-TA + 4.5 µM peptide-C, 30 min, serum-free DMEM, trypsinized, live SYTOX Green-negative cells; temperature not given
Description: (§1) Parent and daughter sequences lacking the PNA cargo were characterized to determine the effect of the cargo on delivery. Sequences were labeled with the fluorophore tetramethylrhodamine (TAMRA) on a C-terminal cysteine residue (PDEP-TA) and their delivery to multiple human cell types was measured by flow cytometry. To test the efficiency under stringent conditions, we used peptide concentrations of only 5 μM total containing 0.5 μM dye-labeled peptide. Peptides were incubated with HeLa, RAW264.7, HepG2, and MCF-7 cells for 30 min at 4 °C, 21 °C, or 37 °C, followed by trypsinization to detach cells for counting and to digest any externally bound peptide. PDEP-TA conjugates are not toxic at this concentration range (Supplementary Figure 2). Flow cytometric analysis (Fig. 3 and Supplementary Figure 4) was used to count TAMRA-positive cells and to measure TAMRA intensity distributions. Confocal microscopy was used to visualize peptide distribution in cells for each cell type (Fig. 3). Time series confocal images of PDEP P17-TA incubated HeLa cells at 21 °C and 37 °C (Fig. 3a) show immediate punctate membrane association. At 37 °C, but not at 21 °C, uptake of dye in punctate structures is observed. At both temperatures, individual cells rapidly and stochastically show the appearance of TAMRA with a diffuse cytosolic distribution in addition to bright puncta. All PDEPs behave similarly and maximum intensity is reached by 30 min at all temperatures. Cell surface-bound peptide is not observed under flow cytometry conditions (Fig. 3a).
(§2) HeLa, RAW264.7, HCT116, HepG2, and MCF-7 cells were plated in 12-well plates at 100,000 cells/well. After 24 h, cells were gently washed in PBS, topped with 500 µl of PDEP-TA solution containing 0.5 µM PDEP-TA + 4.5 µM PDEP-C in sfDMEM without phenol red, and incubated for 30 min at either 4 °C, 23 °C, or 37 °C. […] Cells were transferred to a filter-topped flow cytometry tube and analyzed on a BD LSR II flow cytometer. Cells displaying a normal morphology were gated and first analyzed for GFP fluorescence using the […] laser. GFP-negative cells were used to generate a histogram of TAMRA fluorescence, measured with the […] laser.
(§3) Supplementary Figure 4. Flow cytometry gating strategy for Peptide-C-TA treated cells. In this example, HeLa cells were treated with 5 μM P17-C-TA for 30 minutes at 37°C. Live cells were identified by forward and side scatter. Doublets were excluded in two gating steps using SSC-H x SSC-W and FSC-H x FSC-W. Cells with compromised membranes permitting SYTOX green entry were excluded. The percent of the remaining cells testing positive for TAMRA fluorescence were defined as those with a fluorescence value ≥3000. Additionally, the mean fluorescence for all SYTOX negative cells was recorded.

[3] = system: HepG2 cells; assay: TAMRA delivery assay, flow cytometry; type: cell-based, human; settings: tested as peptide-TA; 0.5 µM peptide-TA + 4.5 µM peptide-C, 30 min, serum-free DMEM, trypsinized, live SYTOX Green-negative cells; temperature not given
Description: as §1, §2, §3

[4] = system: MCF-7 cells; assay: TAMRA delivery assay, flow cytometry; type: cell-based, human; settings: tested as peptide-TA; 0.5 µM peptide-TA + 4.5 µM peptide-C, 30 min, serum-free DMEM, trypsinized, live SYTOX Green-negative cells; temperature not given
Description: as §1, §2, §3

[5] = system: RAW264.7 cells; assay: TAMRA delivery assay, flow cytometry; type: cell-based; settings: tested as peptide-TA; 0.5 µM peptide-TA + 4.5 µM peptide-C, 30 min, serum-free DMEM, trypsinized, live SYTOX Green-negative cells; temperature not given
Description: Parent and daughter sequences lacking the PNA cargo were characterized to determine the effect of the cargo on delivery. Sequences were labeled with the fluorophore tetramethylrhodamine (TAMRA) on a C-terminal cysteine residue (PDEP-TA) and their delivery to multiple human cell types was measured by flow cytometry. To test the efficiency under stringent conditions, we used peptide concentrations of only 5 μM total containing 0.5 μM dye-labeled peptide. Peptides were incubated with HeLa, RAW264.7, HepG2, and MCF-7 cells for 30 min at 4 °C, 21 °C, or 37 °C, followed by trypsinization to detach cells for counting and to digest any externally bound peptide. PDEP-TA conjugates are not toxic at this concentration range (Supplementary Figure 2). […]
HeLa, RAW264.7, HCT116, HepG2, and MCF-7 cells were plated in 12-well plates at 100,000 cells/well. […] Cells were transferred to a filter-topped flow cytometry tube and analyzed on a BD LSR II flow cytometer. Cells displaying a normal morphology were gated and first analyzed for GFP fluorescence using the […] laser. GFP-negative cells were used to generate a histogram of TAMRA fluorescence, measured with the 543 nM laser.
Supplementary Figure 4. […] The percent of the remaining cells testing positive for TAMRA fluorescence were defined as those with a fluorescence value ≥3000. Additionally, the mean fluorescence for all SYTOX negative cells was recorded.

[6] = system: HeLa pTRE-LucIVS2-705 cells; assay: PNA705 mediated luciferase splice correction (luminescence per µg protein); type: cell-based, human; settings: for PNA705 delivery efficiency in words (Fig. 2a): tested as CPP-PNA705 conjugate, up to 5 µM
Description: Cells were treated for 30 min in serum-free media at 37 °C, and then allowed to recover for 24 h in complete media. […] After 24 h, cell lysates were assayed for luciferase by luminescence (Fig. 2a) and for splice corrected mRNA by quantitative PCR (Fig. 2b). To control for total cell density, lysates were also analyzed for total protein by the BCA assay.
HeLa pTRE-LucIVS2-705 cells were seeded on flat-bottom 96-well plates at 10,000 cells per well in 200 µl complete DMEM. The following day, cells were washed in phosphate buffered saline and topped with premixed 50 µl 2× serum/phenol red-free DMEM (Gibco) + 50 µl peptide cleavage solution (ddH2O + peptide). Cells were transfected for 30 min at 37 °C with 5% CO2. The transfection solution was removed, cells were topped with 100 µl complete DMEM. The next day (24-h recovery) cells were washed in PBS. Cells were lysed in 20 µl reporter lysis buffer (Promega E4030) following the manufacturer’s protocol. A volume of 10 μl of lysate from each well was transferred to a 96-well solid black plate; 100 μl of luciferase assay reagent from the Luciferase Assay System (Promega E1500) was added, the plate was agitated for 10 s, and luminescence was measured with a BioTek Synergy 2 plate reader with injector ports. Total protein was measured with a BCA assay (described below). Data were expressed as RLU per µg protein (RLU (µg protein)^−1). During screening, positive wells were defined as those whose RLU per µg protein values exceeded the average for the plate by at least three standard deviations. Subsequent PNA705 delivery experiments were conducted as described above except that volumes were scaled for 24-well plate format.
The remaining 10 µl of lysate from the splice correction assay was combined with 100 µl of the BCA reagents and incubated for 1–4 h at 37 °C per the manufacturer’s protocol. Absorbance at 562 nm was measured using a measured with a BioTek Synergy 2 plate reader.

[7] = system: HeLa pTRE-LucIVS2-705 cells; assay: qRT-PCR of correctly spliced luciferase mRNA; type: cell-based, human; settings: 1.25 µM CPP-PNA705, 30-min incubation, 24-h recovery
Description: To quantify splice correction at the mRNA level, we designed qRT-PCR primers to target the splice junction of the properly spliced mRNA transcript. […] We observe a >100 fold increase in properly spliced luciferase mRNA in cells treated with PDEP–PNA705 relative to control. At 5 μM, the most efficient chimera, P14-PNA705, is 30-fold better than tat, 7-fold better than penetratin, and 4-fold better than Arg9.
HeLa pTRE-LucIVS2 cells were treated as described above with PDEP–PNA705 constructs at varying concentrations. RNA was extracted using the Direct-Zol^TM RNA purification system (Zymo Research) and reverse transcribed with the iScript cDNA synthesis kit (Bio-Rad), and mRNA splice correction was detected using PowerUp SYBR Green master mix (ThermoFisher) on an Applied Biosystems QuantStudio 6 using the following primers sets: […]
The relative quantification of correctly spliced mRNA (90 bp amplicon) over background was calculated using the Pfaffl model.

Molecule	TAMRA-positive cells, example flow cytometry results (Fig. 3b) [1] [%]	HeLa %+ (TAMRA-positive cells) [2] [%]	HEPG2 %+ (TAMRA-positive cells) [3] [%]	MCF-7 %+ (TAMRA-positive cells) [4] [%]	RAW %+ (TAMRA-positive cells) [5] [%]	PNA705 delivery efficiency, head-to-head comparison in the response to reviewers ([6]; PepB-PNA705, P17-PNA705, tat-PNA705 and no treatment, same approach as in the paper)	PNA705 delivery efficiency in words (Fig. 2a) [6]	increase in corrected mRNA over control [7]
CN(C)c1ccc2c(-c3ccccc3C(=O)[O-])c3ccc(N(C)C)cc3[o+]c2c1 [TAMRA, tetramethylrhodamine]	1.99	0.0	0.0	14.4	6.90			
(RXRRBR)2 [Peptide B, (RXRRBR)2, eight arginines and four linear linkers; drives delivery of splice correcting PMOs in vivo]						much more efficient than tat	relatively low PNA delivery efficiency	
Arg9		8.1	16.6	1.6	64.5		much better than tat itself	not measurably higher than control
